# Measured values from PubChem BioAssay AID179 (DTP/NCI, 2004).
# Activity calls are given as the source filed them.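 Rule for the calls: active = compounds giving half or more protection of infected cells from virus-caused growth loss, again on retest; inactive = the rest.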
# Test system: CEM cells HIV-1 protection, formazan growth assay
# Test: NCI AIDS Antiviral Assay
# Settings: for IC50: measured here: growth of uninfected CEM cells
# In short: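 Screen of anti-HIV-1 activity in human CEM cells using a formazan-based growth measurement at five drug concentrations. Hits with 50% or greater protection were repeated, and confirmation required reproducible complete protection.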
Structure (SMILES),EC50,IC50,outcome
CCC(C)[C@H](NC(=O)C1CCCN1C[C@H](O)[C@H](Cc1ccccc1)NC(=O)[C@@H](CC(N)=O)NC(=O)OCc1ccccc1)C(=O)N[C@H](Cc1ccccc1)C(=O)NCCCC[C@@H]1NC(=O)[C@H](CC(C)C)N(C)C(=O)[C@H](C(C)C)NC(=O)[C@H](CC(C)C)N(C)C(=O)[C@@H](CO)N(C)C(=O)[C@H](CC)NC(=O)[C@H]([C@H](O)C(C)C)N(C)C(=O)[C@H](C(C)C)N(C)C(=O)[C@H](CC(C)C)N(C)C(=O)[C@H](CC(C)C)N(C)C(=O)[C@@H](C)NC1=O (stereo not given in full),0.501 µM,67.6 µM,
Cc1cccc(C)c1OC(F)(F)c1nc2ccccc2o1,> 200 µM,30.2 µM,
COC(=O)Oc1nn(C(=O)OC)c(=O)c2ccccc12 (tested in a mixture with another compound),> 200 µM,> 200 µM,
NC(N)=N/N=C/c1c(-c2ccc(Cl)cc2)nc2n1CCS2,> 200 µM,11.2 µM,
O=C(O)c1cc(C(=O)O)c(C(=O)O)c(C(=O)O)c1C(=O)O,,,inactive
CCCC(=O)OC1C(OC(=O)CCC)C(OC(=O)CCC)C(OC(=O)CCC)C(OC(=O)CCC)C1OC(=O)CCC (stereo not given),> 417 µM,> 417 µM,
CC(=O)C1=C(C)Cn2c(=O)c3ccccc3c(=O)n2C1,> 95.5 µM,> 95.5 µM,
O=[N+]([O-])c1ccc(/C=[N+](\[O-])CCO)o1,> 200 µM,30.9 µM,
CN1C2CCC1CC1(C2)SCCS1,,,inactive
CCCCCCCCP(=O)(O)OP(=O)(O)OCC1OC(n2ccc(N)nc2=O)C(O)C1O (stereo not given),> 200 µM,> 200 µM,
CC1CCN(CCCCCNC(=O)C(c2ccccc2)C2CCCCC2)CC(C)(C)C1 (stereo not given),> 100 µM,41.7 µM,
Cc1ccc(S(=O)(=O)OCCC2CN(C(=O)OCc3ccccc3)C(C)(C)O2)cc1 (stereo not given),> 200 µM,14.1 µM,
COc1ccc(-c2c3ccccc3c(-c3ccc(OCCCCCBr)cc3)c3ccccc23)cc1,> 2.75 µM,> 2.75 µM,
O=C(O)c1ccccc1CC1Cc2ccccc2C1,> 200 µM,> 200 µM,
O=c1c2cc(Br)ccc2nc(-c2ccccc2Cl)n1NCC1(O)OCC(O)C(O)C1O (stereo not given),,,inactive
O=C1NC(=O)C2C(=O)NC(=O)C1C2(c1ccccc1)c1cc[nH]c1 (stereo not given),> 22.4 µM,16.6 µM,
CCOC(=O)C(NC(C)=O)(Nc1ccc(S(N)(=O)=O)cc1)C(F)(F)F (stereo not given),> 200 µM,> 200 µM,
C=C(C)C(=O)O[C@H]1C[C@@]23O[C@@H]2CCC(=C[C@H]2OC(=O)C(=C)[C@H]12)COC3O (stereo not given in full),> 195 µM,38 µM,
[N-]=[N+]=NC[C@H]1OCO[C@H](CN=[N+]=[N-])[C@H]2OCCOCCOc3ccccc3OCCOCCO[C@@H]21,> 200 µM,> 200 µM,
CCCN(CCC)C1=Nc2ccccc2-n2cnnc2C1,> 200 µM,178 µM,
CCc1cccc(C)c1NC(=O)CC(=O)NNC(N)=S,> 324 µM,> 324 µM,

Structure (SMILES),EC50,IC50,outcome
COC(=O)C1C2C1C1C=CC2n2c(=O)n(-c3ccccc3)c(=O)n21 (stereo not given),> 200 µM,> 200 µM,
COc1ccc(CC2C(=O)NC(C)C(=O)N(C)C3Cc4ccc(cc4)Oc4cc(ccc4O)CC(C(=O)NC(C)C(=O)NC(C)C(=O)N2C)N(C)C3=O)cc1 (stereo not given),> 0.2 µM,0.0631 µM,
CCN(CC)CCCC(C)Nc1c2cc(OC)cc(C)c2nc2c(C)c(Cl)ccc12 (stereo not given),,,inactive
C=CCCCCC1CCC2CCC(CCCCC=C)N12 (stereo not given),> 95.5 µM,79.4 µM,
CN(C)c1ccc(/C=C(\C#N)c2ccccc2Br)cc1,> 40.7 µM,3.98 µM,
Cc1nc2cn3c(c2c(=O)[nH]1)CCCCC3,> 200 µM,> 200 µM,
CCOC(=O)C1Nc2ccc([N+](=O)[O-])cc2[C@H]2OCC[C@@H]12 (stereo not given in full),> 447 µM,> 447 µM,
Cc1cccc(C(C)(C)C)c1NC(=O)CC1Sc2ccccc2NC1=O (stereo not given),> 51.3 µM,> 51.3 µM,
COC1OC2COC(c3ccccc3)OC2C(S)C1S (stereo not given),> 200 µM,102 µM,
Cc1c(Cl)cccc1NC(=O)C(=O)C1C(=O)NC(=O)NC1=O,> 398 µM,> 398 µM,
Cc1cn([C@H]2CS[C@@H](CO)CO2)c(=O)[nH]c1=O,,,inactive
CCC(C)C(=Nc1ccc(Cl)c(Cl)c1)N(C)C (stereo not given),,,inactive
Cc1ccc(S(=O)(=O)NC(CCC(=O)NNc2ccccc2)C(=O)NNc2ccccc2)cc1 (stereo not given),> 200 µM,,
C=CCC1(C2=C(C)C(=O)c3ccccc32)CCCS1 (stereo not given),> 200 µM,31.6 µM,
COc1ccc(C2=C/C(=C/c3ccc(N(CCC#N)CCC#N)cc3)C(=O)O2)cc1,> 13.2 µM,> 13.2 µM,
COC(=O)/C=C/C(=O)CC(O)COC(=O)c1ccccc1 (stereo not given),> 85.1 µM,2.09 µM,
N/C(=N\N=C/c1c(O)cc(O)cc1O)NO,,,inactive
CC1(C)CC(C)(C)C1=NNC(N)=O,> 200 µM,> 200 µM,
N=C1C(=O)NC(=O)C1c1ccccc1 (stereo not given),> 200 µM,151 µM,
COC(=O)C1=C(OC(C)=O)c2ccccc2CS1,> 135 µM,123 µM,
CCOC(=O)NC1CN2CCC1CC2 (stereo not given),> 200 µM,> 200 µM,

Structure (SMILES),EC50,IC50,outcome
c1nn2cnnc2s1,,,inactive
CC(C)OP(=O)(NC(=S)c1ccccc1)OC(C)C,> 316 µM,295 µM,
CCn1cc(C(=O)O)c(=O)c2ccc(C)nc21,,,inactive
O=C1OC(=O)C2C1C(c1ccccc1)N1C3C(=O)OC(=O)C3C(c3ccccc3)N21 (stereo not given),,,inactive
CCCCCCCCCC=C(c1cc(Br)c(OC)c(C(=O)OC)c1)c1cc(Br)c(OC)c(C(=O)OC)c1,> 29.5 µM,> 29.5 µM,
CC1(C)CC2CC(CC(C)(C)C2=O)C1=O,> 871 µM,> 871 µM,
COC(=O)C(=O)C(C(=O)C(=O)Nc1ccc(C)cc1)c1nc2ccc(C(=O)c3ccccc3)cc2[nH]c1=O (stereo not given),> 26.3 µM,> 26.3 µM,
NC1=NC(OCC2(CO)CCC2)C=C(NCC2(CO)CCC2)N1 (stereo not given),> 200 µM,> 100 µM,
CNc1ccc(S(=O)Nc2ccccc2)cc1 (stereo not given),> 200 µM,93.3 µM,
COc1ccc(S(=O)(=O)n2c3c(c4ccccc42)[C@@H]2[C@@H](CCCN2C(=O)CS(=O)c2ccc(C)cc2)[C@H](Cl)C3)cc1 (stereo not given in full),> 200 µM,> 200 µM,
COc1cccc(/C=C/C(=O)c2sc(C(N)=S)nc2C)c1O,> 11.2 µM,> 11.2 µM,
O=C1C(Cl)=C(Cl)C(=O)N1c1cccc(C(F)(F)F)c1,,,inactive
CC(C#N)(NO)C(C)(C#N)NO (stereo not given),> 200 µM,> 200 µM,
CC(=N/NC(=S)N1CCCCC1)/C(C)=N\NC(=S)N1CCCCC1,> 200 µM,2.24 µM,
CCOC(=O)[C@H]1Nc2ccccc2C2c3ccccc3CC21 (stereo not given in full),> 64.6 µM,> 64.6 µM,
Cc1ccc(S(=O)(=O)OC2C3C=CC2C2CSCC32)cc1 (stereo not given),> 100 µM,> 100 µM,
COc1ccccc1N1C(=O)CSC1c1c[nH]c2ccccc12 (stereo not given),> 288 µM,186 µM,
CC(C)N(CCn1c2c3ccccc3ccc2c2oc(=O)c3ccccc3c21)C(C)C,> 22.4 µM,> 22.4 µM,
CN(NC(=O)/C(=C/c1ccc(Cl)cc1)NC(=O)c1ccccc1)c1cn[nH]c(=O)c1Cl,> 200 µM,6.92 µM,
O=C(NCC(=O)N1CCCC1C(=O)OC(=O)C1CCCN1C(=O)CNC(=O)OCc1ccccc1)OCc1ccccc1 (stereo not given),> 38 µM,30.2 µM,
N#C/C(=C\NC(=S)Nc1cc(Cl)ccc1Cl)C(=O)c1ccc2ccccc2c1,> 100 µM,> 100 µM,

Structure (SMILES),EC50,IC50,outcome
O=[N+]([O-])/C(Cl)=C/C(=C1/Nc2ccccc2O1)[N+](=O)[O-],> 200 µM,30.2 µM,
C=C1C2CC[C@@]3(CC[C@@H]4[C@@]5(C)CCC[C@@]4(CN4CCO[C@H]45)[C@@H]3C2)[C@@H]1O,,,inactive
COc1cc(Cl)cc(=O)c(O)c1OC,> 437 µM,20.9 µM,
[N-]=[N+]=C1C(=O)NC(=O)N2C3CC(O)C(COC12)O3 (stereo not given),> 200 µM,> 200 µM,
COc1nc(NC2OCC(O)C(O)C2O)c(NC2OCC(O)C(O)C2O)c(=O)n1C (stereo not given),> 575 µM,> 575 µM,
O=C1NC2(CCN(CCc3ccccc3)CC2)Oc2ccccc21,> 200 µM,191 µM,
COc1ccc(N=[N+]([O-])c2ccc(OC)cc2)cc1,> 200 µM,> 200 µM,
CC1CCC2(CC1)N=C1CCC(C)CC1C1(CCC(C)CC1)N2 (stereo not given),> 200 µM,97.7 µM,
O=c1c(O)c(-c2ccccc2)oc2ccccc12.[Zn+2],> 200 µM,13.2 µM,
CCC(C)C(NC(=O)C(CCCCN)NC(=O)CNC(=O)C(NC(=O)C(NC(=O)C(NC(=O)C(Cc1ccccc1)NC(=O)C(C)NC(=O)C(CCCNC(=N)N)NC(=O)CNC(=O)C1CCCN1C(=O)CNC(=O)C(CCCNC(=N)N)NC(=O)C(CCC(N)=O)NC(=O)C(NC(=O)C(CCCNC(=N)N)NC(=O)C(NC(=O)C(CO)NC(=O)C(CCCCN)NC(=O)C(CCCNC(=N)N)NC(=O)C(NC(=O)C(CC(N)=O)NC(=O)C(N)CC(=O)NC1OC(CO)C(O)C(O)C1NC(C)=O)C(C)O)C(C)CC)C(C)CC)C(C)C)C(C)O)C(C)CC)C(=O)NCC(N)=O (stereo not given),> 50.1 µM,> 50.1 µM,
CC1=C2CCCCCC2(O)OC1=O (stereo not given),> 646 µM,> 646 µM,
COc1ccc(-c2onc3ccc(Cl)cc23)cc1,> 20 µM,> 20 µM,
COc1ccccc1/C=C1\C(=O)N(C(=O)Cc2ccccc2)N=C1C,> 15.5 µM,> 15.5 µM,
O=Cc1cn(C(=O)c2ccccc2)c2ccccc12,,,inactive
Cc1cc(N(CCC#N)CCC#N)ccc1/C(N=Nc1ccc(C(=O)O)cc1)=N\NC(=O)c1cc(Cl)ccc1O,> 200 µM,112 µM,
Cc1cc2c(c(=O)[nH]1)C(=O)OC2,> 1100 µM,> 1100 µM,
Cc1ccc(NC(=O)/C(=N\Nc2ccc([N+](=O)[O-])cc2[N+](=O)[O-])C2C(=O)NC(=O)NC2=O)cc1,,,inactive
CCOC(=O)c1nc2ccc(Cl)cc2c2c1Cc1ccccc1-2,> 20 µM,> 20 µM,
CC(=O)CC(=O)CCCC(=O)Nc1ccc(Cl)cc1Cl,,,inactive
CCN(CC)C(=O)Cn1c2c(c3ccccc31)CCCC2,> 200 µM,138 µM,
